Reference: ChEMBL document CHEMBL3885881, “DrugMatrix”

Species on record: Rattus norvegicus
Experiment: DrugMatrix - Regimen: Daily Repeat
Assay type: toxicity, organism-based, Sprague-Dawley
Set-up: regimen Daily Repeat, gender Male, age 6-8 weeks
Settings: in vivo, po, route oral GAVAGE, vehicle 100 % WATER; for ABSOLUTE BASOPHIL / ABSOLUTE EOSINOPHIL / ABSOLUTE LYMPHOCYTE / ABSOLUTE MONOCYTE / ABSOLUTE SEGMENTED NEUTROPHIL / BASOPHIL / EOSINOPHIL / ERYTHROCYTE COUNT / HEMATOCRIT / HEMOGLOBIN / LEUKOCYTE COUNT / LYMPHOCYTE / MEAN CORPUSCULAR HEMOGLOBIN / MEAN CORPUSCULAR HEMOGLOBIN CONCENTRATION / MEAN CORPUSCULAR VOLUME / MONOCYTE / NEUTROPHIL / NUCLEATED RED BLOOD CELLS / PLATELET COUNT: tissue Blood; for ALANINE AMINOTRANSFERASE / ALBUMIN / ALKALINE PHOSPHATASE / ASPARTATE AMINOTRANSFERASE / BLOOD UREA NITROGEN / CARBON DIOXIDE / CHLORIDE / CHOLESTEROL / CREATINE PHOSPHOKINASE / CREATININE / GLUCOSE / LACTATE DEHYDROGENASE / LIPASE / PHOSPHORUS / POTASSIUM / SODIUM / TOTAL BILIRUBIN / TOTAL PROTEIN / URIC ACID: tissue Plasma
[1] = 100 mg/kg, 72 h, dose level Low, time 3 day
[2] = 100 mg/kg, 120 h, dose level Low, time 5 day
[3] = 2000 mg/kg, 72 h, dose level High, time 3 day
[4] = 2000 mg/kg, 120 h, dose level High, time 5 day

In the case of O=C1O[C@H]([C@@H](O)CO)C(O)=C1O [ASCORBIC ACID], the “ABSOLUTE BASOPHIL” value [1] is reported as 0 CELLS/uL, the “ABSOLUTE EOSINOPHIL” value [1] is reported as 27 CELLS/uL and the “ABSOLUTE LYMPHOCYTE” value [1] is reported as 7261.67 CELLS/uL. The “ABSOLUTE MONOCYTE” value [1] was 27 CELLS/uL, the “ABSOLUTE SEGMENTED NEUTROPHIL” value [1] was 717.67 CELLS/uL and the BASOPHIL [1] was 0%. The EOSINOPHIL [1] was 0.33%, the “ERYTHROCYTE COUNT” value [1] was 4.91 x10E6/uL and the HEMATOCRIT [1] was 32.13%. The HEMOGLOBIN [1] was 13.13 G/DL, the “LEUKOCYTE COUNT” value [1] was 8.03 x10E3/uL and the LYMPHOCYTE [1] was 89%. For the same compound, the “MEAN CORPUSCULAR HEMOGLOBIN” value [1] was 26.8 pg, the “MEAN CORPUSCULAR HEMOGLOBIN CONCENTRATION” value [1] was 40.87 G/DL and the “MEAN CORPUSCULAR VOLUME” value [1] was 65.43 fL. For the same compound, the MONOCYTE [1] was 0.33%, the NEUTROPHIL [1] was 10.33% and the “NUCLEATED RED BLOOD CELLS” value [1] was 0.33 /100WBC. For the same compound, the “PLATELET COUNT” value [1] was 954.33 x10E3/uL, the “ALANINE AMINOTRANSFERASE” value [1] was 50 u/L and the ALBUMIN [1] was 4.53 G/DL. For the same compound, the “ALKALINE PHOSPHATASE” value [1] was 454.67 u/L, the “ASPARTATE AMINOTRANSFERASE” value [1] was 87 u/L and the “BLOOD UREA NITROGEN” value [1] was 15 mg/dL. The “CARBON DIOXIDE” value [1] was 32.33 mmol/L, the CHLORIDE [1] was 101 MEQ/L and the CHOLESTEROL [1] was 78.33 mg/dL. The “CREATINE PHOSPHOKINASE” value [1] was 273 u/L, the CREATININE [1] was 0.25 mg/dL and the GLUCOSE [1] was 121.33 mg/dL. The “LACTATE DEHYDROGENASE” value [1] was 148.67 u/L, the LIPASE [1] was 9.67 u/L and the PHOSPHORUS [1] was 12.13 mg/dL. For the same compound, the POTASSIUM [1] was 7.25 MEQ/L, the SODIUM [1] was 146.63 MEQ/L and the “TOTAL BILIRUBIN” value [1] was 0.23 mg/dL. The “TOTAL PROTEIN” value [1] was 6.33 G/DL, the “URIC ACID” value [1] was 1.07 mg/dL and the “ABSOLUTE BASOPHIL” value [2] was 0 CELLS/uL. For the same compound, the “ABSOLUTE EOSINOPHIL” value [2] was 0 CELLS/uL, the “ABSOLUTE LYMPHOCYTE” value [2] was 12684.67 CELLS/uL and the “ABSOLUTE MONOCYTE” value [2] was 119.33 CELLS/uL. The “ABSOLUTE SEGMENTED NEUTROPHIL” value [2] was 1596 CELLS/uL, the BASOPHIL [2] was 0% and the EOSINOPHIL [2] was 0%. For the same compound, the “ERYTHROCYTE COUNT” value [2] was 5.44 x10E6/uL, the HEMATOCRIT [2] was 34.63% and the HEMOGLOBIN [2] was 13.63 G/DL. The “LEUKOCYTE COUNT” value [2] was 14.4 x10E3/uL, the LYMPHOCYTE [2] was 88.33% and the “MEAN CORPUSCULAR HEMOGLOBIN” value [2] was 25.07 pg. For the same compound, the “MEAN CORPUSCULAR HEMOGLOBIN CONCENTRATION” value [2] was 39.4 G/DL, the “MEAN CORPUSCULAR VOLUME” value [2] was 63.67 fL and the MONOCYTE [2] was 1%. For the same compound, the NEUTROPHIL [2] was 10.67%, the “NUCLEATED RED BLOOD CELLS” value [2] was 0 /100WBC and the “PLATELET COUNT” value [2] was 1152.33 x10E3/uL. For the same compound, the “ALANINE AMINOTRANSFERASE” value [2] was 51.67 u/L, the ALBUMIN [2] was 4.3 G/DL and the “ALKALINE PHOSPHATASE” value [2] was 417 u/L. For the same compound, the “ASPARTATE AMINOTRANSFERASE” value [2] was 79 u/L, the “BLOOD UREA NITROGEN” value [2] was 17 mg/dL and the “CARBON DIOXIDE” value [2] was 33.33 mmol/L. The CHLORIDE [2] was 103 MEQ/L, the CHOLESTEROL [2] was 73 mg/dL and the “CREATINE PHOSPHOKINASE” value [2] was 142.33 u/L. For the same compound, the CREATININE [2] was 0.2 mg/dL, the GLUCOSE [2] was 152.67 mg/dL and the “LACTATE DEHYDROGENASE” value [2] was 82.33 u/L. The LIPASE [2] was 8.33 u/L, the PHOSPHORUS [2] was 12.97 mg/dL and the POTASSIUM [2] was 6.73 MEQ/L. The SODIUM [2] was 148.3 MEQ/L, the “TOTAL BILIRUBIN” value [2] was 0.2 mg/dL and the “TOTAL PROTEIN” value [2] was 6.23 G/DL. For the same compound, the “URIC ACID” value [2] was 1.53 mg/dL, the “ABSOLUTE BASOPHIL” value [3] was 0 CELLS/uL and the “ABSOLUTE EOSINOPHIL” value [3] was 0 CELLS/uL. For the same compound, the “ABSOLUTE LYMPHOCYTE” value [3] was 11911.67 CELLS/uL, the “ABSOLUTE MONOCYTE” value [3] was 70.67 CELLS/uL and the “ABSOLUTE SEGMENTED NEUTROPHIL” value [3] was 1384.33 CELLS/uL. For the same compound, the BASOPHIL [3] was 0%, the EOSINOPHIL [3] was 0% and the “ERYTHROCYTE COUNT” value [3] was 5.18 x10E6/uL. For the same compound, the HEMATOCRIT [3] was 32.77%, the HEMOGLOBIN [3] was 13.1 G/DL and the “LEUKOCYTE COUNT” value [3] was 13.37 x10E3/uL. The LYMPHOCYTE [3] was 89.33%, the “MEAN CORPUSCULAR HEMOGLOBIN” value [3] was 25.27 pg and the “MEAN CORPUSCULAR HEMOGLOBIN CONCENTRATION” value [3] was 39.97 G/DL. The “MEAN CORPUSCULAR VOLUME” value [3] was 63.27 fL, the MONOCYTE [3] was 0.67% and the NEUTROPHIL [3] was 10%. The “NUCLEATED RED BLOOD CELLS” value [3] was 0 /100WBC, the “PLATELET COUNT” value [3] was 1123.33 x10E3/uL and the “ALANINE AMINOTRANSFERASE” value [3] was 37.67 u/L. For the same compound, the ALBUMIN [3] was 4.03 G/DL, the “ALKALINE PHOSPHATASE” value [3] was 334 u/L and the “ASPARTATE AMINOTRANSFERASE” value [3] was 76.33 u/L. The “BLOOD UREA NITROGEN” value [3] was 15.33 mg/dL, the “CARBON DIOXIDE” value [3] was 32.33 mmol/L and the CHLORIDE [3] was 101.67 MEQ/L. The CHOLESTEROL [3] was 63.67 mg/dL, the “CREATINE PHOSPHOKINASE” value [3] was 214.33 u/L and the CREATININE [3] was 0.17 mg/dL. For the same compound, the GLUCOSE [3] was 146.33 mg/dL, the “LACTATE DEHYDROGENASE” value [3] was 137.67 u/L and the LIPASE [3] was 9 u/L. The PHOSPHORUS [3] was 11.5 mg/dL, the POTASSIUM [3] was 6.65 MEQ/L and the SODIUM [3] was 144.3 MEQ/L. The “TOTAL BILIRUBIN” value [3] was 0.2 mg/dL, the “TOTAL PROTEIN” value [3] was 5.63 G/DL and the “URIC ACID” value [3] was 1.4 mg/dL. The “ABSOLUTE BASOPHIL” value [4] was 0 CELLS/uL, the “ABSOLUTE EOSINOPHIL” value [4] was 0 CELLS/uL and the “ABSOLUTE LYMPHOCYTE” value [4] was 16297.33 CELLS/uL. The “ABSOLUTE MONOCYTE” value [4] was 372.33 CELLS/uL, the “ABSOLUTE SEGMENTED NEUTROPHIL” value [4] was 863.67 CELLS/uL and the BASOPHIL [4] was 0%. For the same compound, the EOSINOPHIL [4] was 0%, the “ERYTHROCYTE COUNT” value [4] was 5.49 x10E6/uL and the HEMATOCRIT [4] was 35.9%. For the same compound, the HEMOGLOBIN [4] was 14.2 G/DL, the “LEUKOCYTE COUNT” value [4] was 17.53 x10E3/uL and the LYMPHOCYTE [4] was 93.33%. The “MEAN CORPUSCULAR HEMOGLOBIN” value [4] was 25.9 pg, the “MEAN CORPUSCULAR HEMOGLOBIN CONCENTRATION” value [4] was 39.53 G/DL and the “MEAN CORPUSCULAR VOLUME” value [4] was 65.47 fL. The MONOCYTE [4] was 2%, the NEUTROPHIL [4] was 4.67% and the “NUCLEATED RED BLOOD CELLS” value [4] was 0.33 /100WBC. The “PLATELET COUNT” value [4] was 1195.67 x10E3/uL, the “ALANINE AMINOTRANSFERASE” value [4] was 48 u/L and the ALBUMIN [4] was 4.23 G/DL. For the same compound, the “ALKALINE PHOSPHATASE” value [4] was 355.33 u/L, the “ASPARTATE AMINOTRANSFERASE” value [4] was 75.33 u/L and the “BLOOD UREA NITROGEN” value [4] was 14.67 mg/dL. The “CARBON DIOXIDE” value [4] was 33.67 mmol/L, the CHLORIDE [4] was 99.67 MEQ/L and the CHOLESTEROL [4] was 70.67 mg/dL. The “CREATINE PHOSPHOKINASE” value [4] was 260 u/L, the CREATININE [4] was 0.26 mg/dL and the GLUCOSE [4] was 135.67 mg/dL. For the same compound, the “LACTATE DEHYDROGENASE” value [4] was 215 u/L, the LIPASE [4] was 10.67 u/L and the PHOSPHORUS [4] was 11.83 mg/dL. For the same compound, the POTASSIUM [4] was 6.61 MEQ/L, the SODIUM [4] was 144.07 MEQ/L and the “TOTAL BILIRUBIN” value [4] was 0.27 mg/dL. The “TOTAL PROTEIN” value [4] was 6.03 G/DL and the “URIC ACID” value [4] was 1.37 mg/dL.
